pIC50, pKd: −log10 of the molar value. In brackets after ≈: the same amount, converted by molar mass. Activity calls are given as the source filed them. The calls are words filed in the database; no cut-off is given here. Where only a bound is given, the exact number is not on record here.

The target in data set [1] is Poly [ADP-ribose] polymerase tankyrase-1 (Homo sapiens) (UniProt O95271). In words: Binding affinity to PARP5a (unknown origin) assessed as apparent dissociation constant.
A short description of data set [2]: Volume of distribution at steady state in rat. It counts as ADME. As to conditions: in vivo, read-out: Vdss.
In data set [3] the target is Protein mono-ADP-ribosyltransferase PARP10 (Homo sapiens, UniProt Q53GL7). In words: Binding affinity to PARP10 (unknown origin) assessed as apparent dissociation constant. As to conditions: read-out: Kd(app).
Data set [4] can be described thus: in vitro. As to conditions: rat, plasma.
The nature of data set [5]: Plasma clearance in dog. It counts as ADME, Canis lupus familiaris.
Data set [6] can be described thus: Unbound clearance in dog. It counts as ADME, Canis lupus familiaris. As to conditions: in vivo.
Data set [7] is described as follows: Oral bioavailability in dog. As to conditions: in vivo. It counts as ADME, organism-based, Canis lupus familiaris.
In data set [8] the target is Protein mono-ADP-ribosyltransferase PARP12 (Homo sapiens) (UniProt Q9H0J9).
Data set [9] in a line: Unbound clearance in rat. It counts as ADME. As to conditions: in vivo.
Data set [10] is described as follows: Antitumor activity against patient derived explant HBCx-17 cells xenografted in mouse assessed as tumor regression administered daily at 0.1 mg/kg, po for 25 days relative to control. As to conditions: time 25 day. It counts as functional, Homo sapiens. For orientation: A xenograft is tissue or cells of one species grown in another, often human tumour cells in immunodeficient mice.

A short description of data set [11]: in vitro. As to conditions: rhesus monkey, plasma.
Data set [12] can be described thus: Half life in dog. As to conditions: in vivo. It counts as ADME, Canis lupus familiaris.
A short description of data set [13]: in vitro. As to conditions: human, liver microsomes.
Data set [14] can be described thus: Half life in mouse. It counts as ADME, organism-based. As to conditions: in vivo.
The nature of data set [15]: Half life in monkey. It counts as ADME, Macaca mulatta. As to conditions: rhesus monkey, in vivo.
For data set [16], the target named is Protein mono-ADP-ribosyltransferase PARP9 (Homo sapiens, UniProt Q8IXQ6).
A short description of data set [17]: Hematotoxicity in CD34+ hematopoietic stem/progenitor cells (unknown origin) assessed as reduction of cell viability treated for 5 days by cell-tire-Glo-2.0 luminescence based assay. It counts as toxicity, CD34-positive hematopoietic stem/progenitor cell. As to conditions: for Activity: cd34-positive hematopoietic stem/progenitor cell, 120 h, DDE = dose-dependent effect, dose lower 1e-05 µM, dose upper 100 µM, time 5 day.

In a further data set the test system is DLD-1. The data set is described as follows: Antiproliferative activity against human DLD-1 deficient in BRCA-2 cells measured after 7 days. It counts as functional, cell-based. As to conditions: Homo sapiens, DLD-1, 168 h.
Data set [18] is described as follows: Antitumor activity against patient derived explant HBCx-17 cells xenografted in mouse assessed as tumor regression administered daily at 1 mg/kg, po for 25 days relative to control. It counts as functional, Homo sapiens. As to conditions: time 25 day.
The nature of data set [19]: Plasma clearance in mouse. It counts as ADME, organism-based.
Data set [20] can be described thus: Unbound clearance in mouse. It counts as ADME, organism-based. As to conditions: in vivo.
Data set [21] in a line: Antitumor activity against patient derived explant HBCx-17 cells xenografted in mouse assessed as tumor regression administered daily at 0.03 mg/kg, po for 25 days relative to control. It counts as functional, Homo sapiens. As to conditions: time 25 day.
Data set [22] is described as follows: Oral bioavailability in monkey. It counts as ADME, organism-based, Macaca mulatta. As to conditions: rhesus monkey, in vivo.
Data set [23] is described as follows: Antitumor activity against patient derived explant HBCx-17 cells xenografted in mouse assessed as tumor regression administered daily at 10 mg/kg, po for 25 days relative to control. It counts as functional, Homo sapiens. As to conditions: time 25 day.
A short description of data set [24]: Oral bioavailability in rat. It counts as ADME, organism-based. As to conditions: in vivo.
For data set [25], the target named is Protein mono-ADP-ribosyltransferase PARP3 (Homo sapiens) (UniProt Q9Y6F1). In words: Binding affinity to PARP3 (unknown origin) assessed as apparent dissociation constant.
Data set [26] concerns the target T1, Protein mono-ADP-ribosyltransferase PARP8 (Homo sapiens) (UniProt Q8N3A8).
T1 sequence (whole entry): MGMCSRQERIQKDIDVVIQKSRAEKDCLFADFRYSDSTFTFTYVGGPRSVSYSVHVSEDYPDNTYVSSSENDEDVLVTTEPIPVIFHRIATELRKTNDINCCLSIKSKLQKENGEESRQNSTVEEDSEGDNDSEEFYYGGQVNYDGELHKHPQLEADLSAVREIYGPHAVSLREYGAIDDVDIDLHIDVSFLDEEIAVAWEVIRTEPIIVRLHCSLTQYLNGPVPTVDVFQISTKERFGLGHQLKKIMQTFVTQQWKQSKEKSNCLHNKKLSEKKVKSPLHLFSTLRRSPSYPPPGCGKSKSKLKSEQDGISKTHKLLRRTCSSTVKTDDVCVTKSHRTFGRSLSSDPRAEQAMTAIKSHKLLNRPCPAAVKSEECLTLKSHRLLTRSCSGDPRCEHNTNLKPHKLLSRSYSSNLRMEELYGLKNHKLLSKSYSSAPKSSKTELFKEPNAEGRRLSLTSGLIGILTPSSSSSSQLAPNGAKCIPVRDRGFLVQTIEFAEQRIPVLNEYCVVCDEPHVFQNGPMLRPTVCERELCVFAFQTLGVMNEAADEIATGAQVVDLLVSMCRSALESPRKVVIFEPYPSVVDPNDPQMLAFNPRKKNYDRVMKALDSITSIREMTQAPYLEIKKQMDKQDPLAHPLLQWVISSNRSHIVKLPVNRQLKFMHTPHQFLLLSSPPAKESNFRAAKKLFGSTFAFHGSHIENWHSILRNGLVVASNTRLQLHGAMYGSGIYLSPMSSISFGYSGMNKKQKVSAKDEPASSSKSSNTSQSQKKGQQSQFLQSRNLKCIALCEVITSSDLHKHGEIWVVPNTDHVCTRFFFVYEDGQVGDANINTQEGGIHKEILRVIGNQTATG

A short description of data set [27]: Plasma clearance in rat. It counts as ADME.
Data set [28] can be described thus: Half life in rat. As to conditions: in vivo. It counts as ADME.
A further data set is described as follows: physchem. As to conditions: buffer, pH 7.4.
Data set [29] can be described thus: Unbound clearance in monkey. As to conditions: rhesus monkey, in vivo. It counts as ADME, Macaca mulatta.
Data set [30] is described as follows: Volume of distribution at steady state in mouse. It counts as ADME, organism-based. As to conditions: in vivo, read-out: Vdss.
The nature of data set [31]: Plasma clearance in monkey. It counts as ADME, Macaca mulatta. As to conditions: rhesus monkey.
Data set [32] in a line: in vitro. As to conditions: dog, plasma.
Data set [33] has as its target Protein mono-ADP-ribosyltransferase PARP14 (Homo sapiens) (UniProt Q460N5).
For data set [34], the target named is Protein mono-ADP-ribosyltransferase PARP4 (Homo sapiens) (UniProt Q9UKK3). The data set is described as follows: Binding affinity to PARP4 (unknown origin) assessed as apparent dissociation constant.
A short description of data set [35]: Hematotoxicity in CD34+ hematopoietic stem/progenitor cells (unknown origin) assessed as remaining viable cells treated at 100 nM for 5 days by cell-tire-Glo-2.0 luminescence based assay relative to control. It counts as toxicity, CD34-positive hematopoietic stem/progenitor cell. As to conditions: time 5 day, read-out: Activity.
Data set [36] is described as follows: Volume of distribution at steady state in dog. It counts as ADME, Canis lupus familiaris. As to conditions: in vivo, read-out: Vdss.
Data set [37] in a line: Oral bioavailability in mouse. It counts as ADME, organism-based. As to conditions: in vivo.
In data set [38] the target is Protein mono-ADP-ribosyltransferase PARP16 (Homo sapiens) (UniProt Q8N5Y8). The data set is described as follows: Binding affinity to PARP16 (unknown origin) assessed as apparent dissociation constant.
A short description of data set [39]: Hematotoxicity in CD34+ hematopoietic stem/progenitor cells (unknown origin) assessed as reduction of cell viability treated at 3 nM for 5 days by cell-tire-Glo-2.0 luminescence based assay. As to conditions: cd34-positive hematopoietic stem/progenitor cell, 120 h, 0.003 µM, time 5 day. It counts as toxicity.
A short description of data set [40]: Intrinsic clearance in human hepatocytes measured per million of cells. It counts as ADME, cell-based, Hepatocyte. As to conditions: read-out: CLH.
A short description of data set [41]: Aqueous solubility of the compound at pH 7.4. It counts as physicochemical. As to conditions: buffer.
A short description of data set [42]: Volume of distribution at steady state in monkey. It counts as ADME, Macaca mulatta. As to conditions: rhesus monkey, in vivo; read-out: Vdss.
In data set [43] the target is Protein mono-ADP-ribosyltransferase TIPARP (Homo sapiens) (UniProt Q7Z3E1).
A short description of data set [44]: Hematotoxicity in CD34+ hematopoietic stem/progenitor cells (unknown origin) assessed as reduction of cell viability treated at 0.00001 to 100 uM for 5 days by cell-tire-Glo-2.0 luminescence based assay relative to control. It counts as toxicity. As to conditions: cd34-positive hematopoietic stem/progenitor cell, 120 h, dose lower 1e-05 µM, dose upper 100 µM, time 5 day.

Data set [45] has as its target Protein mono-ADP-ribosyltransferase PARP12 (Homo sapiens, UniProt Q9H0J9).
The target of data set [46] is Protein mono-ADP-ribosyltransferase PARP8 (Homo sapiens, UniProt Q8N3A8). In words: Binding affinity to PARP8 (unknown origin) assessed as apparent dissociation constant. As to conditions: read-out: Kd(app).
Data set [47] deals with Poly [ADP-ribose] polymerase tankyrase-2 (Homo sapiens) (UniProt Q9H2K2).
The nature of data set [48]: Antitumor activity against patient derived explant HBCx-17 cells xenografted in mouse assessed as tumor regression administered daily at 100 mg/kg, po for 25 days relative to control. It counts as functional, Homo sapiens. As to conditions: time 25 day.

Chain of Protein mono-ADP-ribosyltransferase PARP12 (Homo sapiens) (Q9H0J9 whole entry): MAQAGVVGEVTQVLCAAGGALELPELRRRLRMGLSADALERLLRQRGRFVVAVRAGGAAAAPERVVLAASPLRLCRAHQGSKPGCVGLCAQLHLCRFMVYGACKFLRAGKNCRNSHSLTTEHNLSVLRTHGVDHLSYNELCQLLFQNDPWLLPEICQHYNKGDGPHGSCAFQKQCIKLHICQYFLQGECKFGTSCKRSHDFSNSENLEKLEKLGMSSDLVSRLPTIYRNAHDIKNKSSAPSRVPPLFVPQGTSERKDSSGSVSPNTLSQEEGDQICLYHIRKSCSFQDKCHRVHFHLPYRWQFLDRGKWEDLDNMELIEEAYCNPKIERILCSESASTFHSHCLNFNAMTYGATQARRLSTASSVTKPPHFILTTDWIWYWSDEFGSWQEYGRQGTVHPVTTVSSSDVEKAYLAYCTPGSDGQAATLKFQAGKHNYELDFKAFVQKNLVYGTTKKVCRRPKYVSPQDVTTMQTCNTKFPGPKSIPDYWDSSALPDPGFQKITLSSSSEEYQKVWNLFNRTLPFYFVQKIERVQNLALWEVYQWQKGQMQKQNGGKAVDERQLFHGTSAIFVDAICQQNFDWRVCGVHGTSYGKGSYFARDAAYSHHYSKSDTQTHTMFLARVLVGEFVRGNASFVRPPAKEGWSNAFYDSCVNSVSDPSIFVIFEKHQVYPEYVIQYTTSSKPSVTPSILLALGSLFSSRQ
Chain of Protein mono-ADP-ribosyltransferase PARP12 (Q9H0J9 whole entry): as above
Chain of Protein mono-ADP-ribosyltransferase PARP4 (Homo sapiens) (Q9UKK3 whole entry): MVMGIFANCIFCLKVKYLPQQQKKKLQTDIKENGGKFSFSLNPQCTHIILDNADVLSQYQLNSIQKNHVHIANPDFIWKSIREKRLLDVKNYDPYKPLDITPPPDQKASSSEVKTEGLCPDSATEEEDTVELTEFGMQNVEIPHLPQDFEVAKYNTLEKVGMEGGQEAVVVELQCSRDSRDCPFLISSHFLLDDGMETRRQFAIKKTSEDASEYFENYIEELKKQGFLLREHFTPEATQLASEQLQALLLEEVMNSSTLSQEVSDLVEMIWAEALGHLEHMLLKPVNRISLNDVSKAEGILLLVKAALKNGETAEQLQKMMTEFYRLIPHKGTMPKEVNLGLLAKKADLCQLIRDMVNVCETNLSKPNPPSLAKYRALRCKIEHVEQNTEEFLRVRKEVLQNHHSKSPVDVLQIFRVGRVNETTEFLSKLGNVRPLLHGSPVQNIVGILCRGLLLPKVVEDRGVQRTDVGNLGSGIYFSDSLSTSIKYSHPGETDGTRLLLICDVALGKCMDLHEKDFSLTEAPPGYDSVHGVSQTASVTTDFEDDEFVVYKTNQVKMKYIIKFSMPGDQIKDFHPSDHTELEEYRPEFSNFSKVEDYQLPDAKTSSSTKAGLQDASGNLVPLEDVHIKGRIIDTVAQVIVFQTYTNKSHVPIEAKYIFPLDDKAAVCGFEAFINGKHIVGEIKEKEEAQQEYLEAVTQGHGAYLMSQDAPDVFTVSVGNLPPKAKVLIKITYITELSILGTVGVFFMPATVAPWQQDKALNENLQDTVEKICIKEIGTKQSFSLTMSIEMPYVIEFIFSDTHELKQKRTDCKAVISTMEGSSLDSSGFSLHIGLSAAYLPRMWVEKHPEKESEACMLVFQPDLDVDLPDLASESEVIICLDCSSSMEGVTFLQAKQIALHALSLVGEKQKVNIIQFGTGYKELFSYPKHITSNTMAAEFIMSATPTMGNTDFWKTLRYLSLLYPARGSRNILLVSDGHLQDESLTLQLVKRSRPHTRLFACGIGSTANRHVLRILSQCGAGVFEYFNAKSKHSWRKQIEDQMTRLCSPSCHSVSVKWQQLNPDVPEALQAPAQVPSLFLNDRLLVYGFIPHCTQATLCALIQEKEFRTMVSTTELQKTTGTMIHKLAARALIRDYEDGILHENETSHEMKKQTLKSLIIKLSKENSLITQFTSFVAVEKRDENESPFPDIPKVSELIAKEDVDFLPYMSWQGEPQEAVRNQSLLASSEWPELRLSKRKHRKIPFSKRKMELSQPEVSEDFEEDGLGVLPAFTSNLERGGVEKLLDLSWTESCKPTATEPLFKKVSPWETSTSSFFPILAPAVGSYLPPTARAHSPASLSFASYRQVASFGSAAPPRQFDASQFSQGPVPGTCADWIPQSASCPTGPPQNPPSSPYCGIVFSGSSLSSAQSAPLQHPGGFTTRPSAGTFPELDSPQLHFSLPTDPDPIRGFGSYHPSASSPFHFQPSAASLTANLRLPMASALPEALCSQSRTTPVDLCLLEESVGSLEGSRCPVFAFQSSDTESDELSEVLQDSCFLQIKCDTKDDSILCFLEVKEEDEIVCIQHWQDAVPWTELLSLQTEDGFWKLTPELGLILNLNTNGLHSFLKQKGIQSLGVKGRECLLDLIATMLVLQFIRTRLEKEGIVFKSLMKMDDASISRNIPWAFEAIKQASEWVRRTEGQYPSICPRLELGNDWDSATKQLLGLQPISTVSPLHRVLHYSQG
Chain of Protein mono-ADP-ribosyltransferase PARP16 (Homo sapiens) (Q8N5Y8 whole entry): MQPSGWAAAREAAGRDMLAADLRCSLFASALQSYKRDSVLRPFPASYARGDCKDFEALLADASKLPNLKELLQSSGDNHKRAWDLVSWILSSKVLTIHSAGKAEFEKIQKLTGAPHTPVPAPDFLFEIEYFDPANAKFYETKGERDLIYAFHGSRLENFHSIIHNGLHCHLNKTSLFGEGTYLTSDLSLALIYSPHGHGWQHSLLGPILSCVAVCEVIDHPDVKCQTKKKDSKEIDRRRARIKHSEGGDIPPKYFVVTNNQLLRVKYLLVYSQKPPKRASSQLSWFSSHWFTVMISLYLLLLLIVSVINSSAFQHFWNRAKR
Chain of Protein mono-ADP-ribosyltransferase PARP3 (Homo sapiens) (Q9Y6F1 whole entry): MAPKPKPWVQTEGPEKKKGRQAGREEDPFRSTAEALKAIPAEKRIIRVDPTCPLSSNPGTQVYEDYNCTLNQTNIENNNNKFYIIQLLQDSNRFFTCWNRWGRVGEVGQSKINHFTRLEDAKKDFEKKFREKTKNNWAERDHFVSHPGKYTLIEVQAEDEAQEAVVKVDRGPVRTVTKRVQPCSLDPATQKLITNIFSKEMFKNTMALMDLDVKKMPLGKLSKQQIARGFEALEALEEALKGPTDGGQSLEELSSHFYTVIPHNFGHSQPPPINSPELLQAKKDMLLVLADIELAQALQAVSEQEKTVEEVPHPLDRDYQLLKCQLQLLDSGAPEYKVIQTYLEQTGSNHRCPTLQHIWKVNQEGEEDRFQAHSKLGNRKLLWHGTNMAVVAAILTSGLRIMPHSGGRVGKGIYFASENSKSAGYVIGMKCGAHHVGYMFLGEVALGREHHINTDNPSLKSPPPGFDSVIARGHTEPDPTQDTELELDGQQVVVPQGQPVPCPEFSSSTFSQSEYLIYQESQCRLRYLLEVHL
Chain of Protein mono-ADP-ribosyltransferase PARP14 (Homo sapiens) (Q460N5 whole entry): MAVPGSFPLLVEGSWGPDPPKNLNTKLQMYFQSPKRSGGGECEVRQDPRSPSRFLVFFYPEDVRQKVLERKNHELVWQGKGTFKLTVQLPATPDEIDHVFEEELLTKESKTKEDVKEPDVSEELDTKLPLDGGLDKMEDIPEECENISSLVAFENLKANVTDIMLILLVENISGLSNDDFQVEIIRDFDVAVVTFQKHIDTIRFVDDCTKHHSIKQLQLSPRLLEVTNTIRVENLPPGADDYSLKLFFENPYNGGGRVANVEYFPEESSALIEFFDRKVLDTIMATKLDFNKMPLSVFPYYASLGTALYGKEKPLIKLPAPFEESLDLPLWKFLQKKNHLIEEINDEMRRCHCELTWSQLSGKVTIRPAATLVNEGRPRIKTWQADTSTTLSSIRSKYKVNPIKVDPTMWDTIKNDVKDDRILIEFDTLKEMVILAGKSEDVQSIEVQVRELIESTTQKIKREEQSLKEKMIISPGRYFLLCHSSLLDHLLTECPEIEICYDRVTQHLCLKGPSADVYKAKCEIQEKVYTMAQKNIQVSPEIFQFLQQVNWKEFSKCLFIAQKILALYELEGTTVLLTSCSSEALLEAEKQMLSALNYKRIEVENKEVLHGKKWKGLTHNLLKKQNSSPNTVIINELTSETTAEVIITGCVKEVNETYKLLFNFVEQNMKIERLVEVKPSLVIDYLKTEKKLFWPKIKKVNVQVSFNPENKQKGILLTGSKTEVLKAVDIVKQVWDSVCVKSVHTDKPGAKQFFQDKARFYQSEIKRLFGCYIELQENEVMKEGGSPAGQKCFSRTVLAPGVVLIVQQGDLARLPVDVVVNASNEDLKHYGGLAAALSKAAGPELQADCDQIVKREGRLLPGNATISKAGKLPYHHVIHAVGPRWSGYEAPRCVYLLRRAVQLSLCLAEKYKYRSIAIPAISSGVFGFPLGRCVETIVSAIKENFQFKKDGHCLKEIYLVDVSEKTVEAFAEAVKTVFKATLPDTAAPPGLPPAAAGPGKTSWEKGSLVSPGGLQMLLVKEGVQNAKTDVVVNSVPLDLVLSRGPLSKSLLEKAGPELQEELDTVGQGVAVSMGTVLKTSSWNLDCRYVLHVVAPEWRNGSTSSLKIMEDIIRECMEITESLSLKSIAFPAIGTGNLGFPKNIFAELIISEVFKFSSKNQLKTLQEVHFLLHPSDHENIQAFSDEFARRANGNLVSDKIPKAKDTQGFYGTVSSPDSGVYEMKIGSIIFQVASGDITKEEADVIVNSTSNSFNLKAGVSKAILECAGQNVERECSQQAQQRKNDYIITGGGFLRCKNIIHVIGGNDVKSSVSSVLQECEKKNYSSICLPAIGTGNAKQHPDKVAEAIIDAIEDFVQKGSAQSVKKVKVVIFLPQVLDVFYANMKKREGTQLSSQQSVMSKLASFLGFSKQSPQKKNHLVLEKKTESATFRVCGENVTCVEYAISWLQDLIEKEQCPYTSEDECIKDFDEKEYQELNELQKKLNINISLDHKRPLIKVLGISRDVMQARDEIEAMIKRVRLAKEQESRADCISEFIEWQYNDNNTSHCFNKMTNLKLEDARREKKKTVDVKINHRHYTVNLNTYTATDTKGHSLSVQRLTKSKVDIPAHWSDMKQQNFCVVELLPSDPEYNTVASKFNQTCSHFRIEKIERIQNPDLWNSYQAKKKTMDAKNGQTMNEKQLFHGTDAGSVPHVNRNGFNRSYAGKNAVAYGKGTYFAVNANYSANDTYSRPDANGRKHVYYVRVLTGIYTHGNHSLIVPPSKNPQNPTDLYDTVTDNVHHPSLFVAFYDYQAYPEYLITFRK

As for `CCc1cc2ncc(CN3CCN(c4ccc(C(=O)NC)nc4)CC3)cc2[nH]c1=O` [SARUPARIB], the “Kd(app)” value in data set [1], in [8], in data set [16], in data set [25], in [26] and in data set [33] was “Active” throughout. The “Kd(app)” value in [34] and in data set [38] was “Active” each time. Moreover, the Vd in [2] came out at 0.38 L/kg; in data set [30], 0.17 L/kg; in data set [36] it was 0.3 L/kg; in data set [42] it was 0.38 L/kg. In addition, the negative logarithm of the Kd (pKd) in [3] is under 5.00. The fraction unbound was 0.032 in the data set “in vitro [4]”, 0.043 in the data set “in vitro [11]” and 0.17 in “in vitro [32]”. The clearance in data set [5] stood at 0.35 mL/min/kg; in data set [19], 0.23 mL/min/kg; in [27], 1.1 mL/min/kg; in data set [31], 0.84 mL/min/kg. Besides, the CL free in data set [6] stood at 2.1 mL/min/kg; in data set [9] it was 34 mL/min/kg; in [20] it was 3.2 mL/min/kg; in data set [29] it was 20 mL/min/kg. The bioavailability in data set [7] worked out at 73%; in data set [22], 122%; in data set [24] it was 132%; in [37], 77%. Besides, the Activity in data set [10] is reported as 73%; in [17], “Dde”; in data set [18], 86%; in data set [21] it was 23%; in [23], 84%; in data set [39], “Toxic”. The half-life in [12] was 10 h; in data set [14], 8 h; in data set [15], 7.1 h; in [28], 4.6 h. Also, the microsomal CLint in “in vitro [13]” is under 3 µL/min/mg. The same compound gave a negative logarithm of the IC50 (pIC50) with DLD-1 of 8.70. This compound had a logD in the data set “physchem” of 1.9. Besides, the viability at 120 h, 0.1 µM in data set [35] came out at 46%. In addition, the hepatocyte CLint in [40] is under 1 µL/min/1e6 cells. Further, the concentration in solution in data set [41] (solubility) was 50 µM (≈ 20.3 µg/mL).

Turning to `Cn1ncnc1[C@H]1c2n[nH]c(=O)c3cc(F)cc(c23)N[C@@H]1c1ccc(F)cc1` [TALAZOPARIB], the “Kd(app)” value in [43], in data set [16] and in data set [47] was “Active” throughout. For the same compound, in data set [17] (CD34+ hematopoietic stem/progenitor cells), the IC50 at 5 days amounted to 0.027 µM. For the same compound, the Activity entry in [17] is reported as “Dde”; in data set [44], 1%. In the data set with DLD-1, this compound had a pIC50 of 8.70. Also, the pKd in data set [45] was under 5.00; in [46], 5.96. The viability at 120 h, 0.1 µM in data set [35] was 10%.

In the case of `O=C(c1cc(Cc2n[nH]c(=O)c3ccccc23)ccc1F)N1CCN(C(=O)C2CC2)CC1` [OLAPARIB], the Activity in [48] is 81%. This compound also gave a pIC50 in the data set on DLD-1 of 7.38.

By pKd is commonly meant the negative decadic logarithm of the Kd, by convention in mol/L. In general, fraction unbound refers to the share of the substance not bound to proteins or other matrix. In general, clearance refers to the rate of elimination divided by the concentration. As a reminder, the half-life is the time in which the quantity being followed falls by half. What is called microsomal CLint is the capacity of the preparation to metabolise the compound, expressed as a volume cleared per time. As a reminder, the pIC50 is the negative decadic logarithm of the IC50, by convention in mol/L. A word on the logD: it is lipophilicity at a set pH, counting ionised and neutral species. As a reminder, the solubility is how much of the substance goes into solution per volume. Broadly, the IC50 is the concentration that gives 50% inhibition.

These data come from ChEMBL document CHEMBL5150005, “Discovery of 5-{4-[(7-Ethyl-6-oxo-5,6-dihydro-1,5-naphthyridin-3-yl)methyl]piperazin-1-yl}-N-methylpyridine-2-carboxamide (AZD5305): A PARP1-DNA Trapper with High Selectivity for PARP1 over PARP2 and Other PARPs” (J Med Chem, 2021).
